Measured values taken from PubChem BioAssay (NCI).
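Cultured in 96-well plates, cells were exposed to test compound for 48 hours across five concentrations. TGI: total growth inhibition.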

Columns and labels:
Test in all cases: NCI anticancer screen, dose series, 48 h
UACC-62 melanoma = test system: UACC-62 melanoma
SF-295 CNS = test system: SF-295 CNS
U251 CNS = test system: U251 CNS
HOP-62 NSCLC = test system: HOP-62 NSCLC
NCI-H23 lung = test system: NCI-H23 lung
MALME-3M melanoma = test system: MALME-3M melanoma
MDA-MB-231 breast = test system: MDA-MB-231 breast
OVCAR-3 ovarian = test system: OVCAR-3 ovarian
BT-549 breast = test system: BT-549 breast
UO-31 renal = test system: UO-31 renal
SK-MEL-28 melanoma = test system: SK-MEL-28 melanoma
SF-268 CNS = test system: SF-268 CNS
HCC-2998 colon = test system: HCC-2998 colon
COLO 205 colon = test system: COLO 205 colon
RXF 393 renal = test system: RXF 393 renal
TK-10 renal = test system: TK-10 renal
UACC-257 melanoma = test system: UACC-257 melanoma
NCI-H522 lung = test system: NCI-H522 lung
NCI-H460 lung = test system: NCI-H460 lung
T-47D breast = test system: T-47D breast
KM12 colon = test system: KM12 colon
M14 melanoma = test system: M14 melanoma
SNB-19 CNS = test system: SNB-19 CNS
HT29 colon = test system: HT29 colon
NCI/ADR-RES ovarian = test system: NCI/ADR-RES ovarian
ACHN renal = test system: ACHN renal
DU-145 prostate = test system: DU-145 prostate
A549 NSCLC = test system: A549 NSCLC
786-0 renal = test system: 786-0 renal
CAKI-1 renal = test system: CAKI-1 renal
RPMI-8226 leukemia = test system: RPMI-8226 leukemia
SK-MEL-5 melanoma = test system: SK-MEL-5 melanoma
MDA-MB-435 = test system: MDA-MB-435
OVCAR-4 ovarian = test system: OVCAR-4 ovarian
SR leukemia = test system: SR leukemia
HCT-116 colon = test system: HCT-116 colon
OVCAR-5 ovarian = test system: OVCAR-5 ovarian
SK-MEL-2 melanoma = test system: SK-MEL-2 melanoma
HS 578T breast = test system: HS 578T breast
NCI-H226 lung = test system: NCI-H226 lung
OVCAR-8 ovarian = test system: OVCAR-8 ovarian
CCRF-CEM leukemia = test system: CCRF-CEM leukemia
LOX IMVI melanoma = test system: LOX IMVI melanoma
SK-OV-3 ovarian = test system: SK-OV-3 ovarian
SF-539 CNS = test system: SF-539 CNS
MCF7 breast = test system: MCF7 breast
EKVX NSCLC = test system: EKVX NSCLC
HOP-92 NSCLC = test system: HOP-92 NSCLC
SN12C renal = test system: SN12C renal
MDA-N = test system: MDA-N
SW-620 colon = test system: SW-620 colon
K-562 leukemia = test system: K-562 leukemia
SNB-75 CNS = test system: SNB-75 CNS
A498 renal = test system: A498 renal
MOLT-4 leukemia = test system: MOLT-4 leukemia
PC-3 prostate = test system: PC-3 prostate
HCT-15 colon = test system: HCT-15 colon
HL-60(TB) leukemia = test system: HL-60(TB) leukemia
IGROV1 ovarian = test system: IGROV1 ovarian

Measured: TGI

Oc1ccc(-c2nn3c(CCCCCCCCc4nnc5sc(-c6ccc(O)cc6)nn45)nnc3s2)cc1
not listed: HL-60(TB) leukemia | IGROV1 ovarian
> 100 µM: all other assays above

CN(C)c1ccc(/C=C/c2nc3ccccc3s2)cc1
not listed: UACC-62 melanoma | OVCAR-3 ovarian | CAKI-1 renal | SNB-75 CNS
> 100 µM: all other assays above

O=C(O)c1cc2ccccc2c(N=Nc2ccc(S(=O)(=O)O)cc2)c1O
not listed: NCI-H23 lung | LOX IMVI melanoma | A498 renal
> 100 µM: all other assays above

COc1ccc(/C=C(\C#N)c2nc3ccccc3c(=O)[nH]2)cc1
47.2 µM: SF-268 CNS
83.8 µM: TK-10 renal
26.1 µM: SF-539 CNS
57.1 µM: SK-MEL-5 melanoma
28.4 µM: OVCAR-8 ovarian
33.9 µM: U251 CNS
52.2 µM: SF-295 CNS
29.3 µM: HOP-92 NSCLC
19.7 µM: MDA-MB-231 breast
74.7 µM: SK-MEL-2 melanoma
25.2 µM: NCI-H522 lung
70.3 µM: OVCAR-4 ovarian
80.1 µM: CAKI-1 renal
34.4 µM: NCI-H460 lung
24.1 µM: HOP-62 NSCLC
75.1 µM: T-47D breast | IGROV1 ovarian
91.6 µM: HS 578T breast
72.4 µM: UO-31 renal
34.7 µM: 786-0 renal
90.1 µM: NCI/ADR-RES ovarian
28.9 µM: SNB-19 CNS
42.3 µM: ACHN renal
29.7 µM: BT-549 breast
64.6 µM: DU-145 prostate
32.3 µM: RXF 393 renal
84.3 µM: NCI-H226 lung
23.8 µM: SK-OV-3 ovarian
19 µM: HCT-116 colon
not listed: NCI-H23 lung | OVCAR-3 ovarian | A498 renal
> 100 µM: all other assays above

O=C(O)C1[C@@H](C(=O)O)C1(Br)CBr (stereo partly specified)
not listed: MALME-3M melanoma | CCRF-CEM leukemia
> 100 µM: all other assays above
